This passage reports Activity results from ChEMBL document CHEMBL1134959, “Synthesis and testing of 2alpha-modified 1alpha,25-dihydroxyvitamin D(3) analogues with a double side chain: marked cell differentiation activity” (2002).

The test system of assay [1] is HL-60. Briefly: Compound was evaluated for its relative cell differentiation of human promyelocytic leukemia cells (HL-60). Type of assay: functional.
Assay [2] concerns the target T1, Vitamin D3 receptor (Bos taurus) (UniProt Q28037).
T1 sequence (whole entry): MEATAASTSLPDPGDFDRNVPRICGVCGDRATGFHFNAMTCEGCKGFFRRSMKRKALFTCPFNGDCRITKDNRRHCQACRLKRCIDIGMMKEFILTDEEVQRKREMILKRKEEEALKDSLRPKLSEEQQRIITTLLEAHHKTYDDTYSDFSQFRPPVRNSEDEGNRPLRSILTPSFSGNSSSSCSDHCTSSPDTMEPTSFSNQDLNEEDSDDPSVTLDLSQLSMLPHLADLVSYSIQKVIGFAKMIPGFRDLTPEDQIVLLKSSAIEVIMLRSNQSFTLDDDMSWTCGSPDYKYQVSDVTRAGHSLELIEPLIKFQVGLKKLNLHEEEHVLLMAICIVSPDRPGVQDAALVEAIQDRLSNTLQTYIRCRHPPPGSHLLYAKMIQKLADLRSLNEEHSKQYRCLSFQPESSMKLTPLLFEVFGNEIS
The assay is described as follows: Affinity for bovine thymus vitamin D receptor.

Regarding `C=C1/C(=C\C=C2/CCC[C@@]3(C)C2CC[C@@H]3C(CCCC(C)(C)O)CCCC(C)(C)O)C[C@@H](O)[C@H](OCCCO)[C@@H]1O` (stereo not given in full), the Activity in assay [1] amounted to 1920; in assay [2], 36.

Take `C=C1/C(=C\C=C2/CCC[C@]3(C)[C@@H]([C@H](C)CCCC(C)(C)O)CC[C@@H]23)C[C@@H](O)C[C@@H]1O` [CALCITRIOL]: the Activity in assay [1] and in assay [2] was 100 each time.

On to `C=C1/C(=C\C=C2/CCC[C@@]3(C)C2CC[C@@H]3C(CCCC(C)(C)O)CCCC(C)(C)O)C[C@@H](O)[C@H](CCCO)[C@@H]1O` (stereo not given in full), for which the values for the Activity in assay [1] and in assay [2] were 1280 and 57, respectively.

In the case of `C=C1/C(=C\C=C2/CCC[C@@]3(C)C2CC[C@@H]3C(CCCC(C)(C)O)CCCC(C)(C)O)C[C@@H](O)C[C@@H]1O` (stereo not given in full), the Activity came out at 1060 in assay [1] and 24 in assay [2].

Regarding `C=C1/C(=C\C=C2/CCC[C@@]3(C)C2CC[C@@H]3C(CCCC(C)(C)O)CCCC(C)(C)O)C[C@@H](O)[C@H](C)[C@@H]1O` (stereo not given in full), the values for the Activity in assay [1] and in assay [2] were 3840 and 53, respectively.
